# Results taken from patent US5385842A, “Anthraquinones as inhibitors of sulfide production from sulfate-reducing bacteria” (E. I. Du Pont de Nemours and Company, priority 1993, dated 1995).
# Key:
# [1] = tested on: Desulfovibrio desulfuricans G100A; experiment: microbe, parasite or virus in culture; assay type: cell-based; conditions: Desulfovibrio desulfuricans, G100A, read-out: % Inhib. (inhibition of sulfide production)
# [2] = tested on: D. desulfuricans G100A; experiment: Growth of D. desulfuricans G100A after addition of inhibitor at 12 h; assay type: cell-based
# Experimental: Four 10 ml culture tubes of BTZ-3 medium as defined in Example 1 supplemented with sodium lactate (40 mM) and sodium sulfate (30 mM) and 0.5 ml of reducing agent were inoculated with 100 ul of a fully grown suspension of D. desulfuricans G100A. The culture was allowed to grow and the optical density at 660 nm was monitored until the cells entered into exponential growth (approx. 12-15 h, O.D. 660=0.1-0.2). At this time 100 ul of a 300 ppm solution of 1,8 dihydroxyanthraquinone, 1-chloranthraquinone or 3-chloro-2-anthraquinone carboxylic acid, respectively, was added to one of the tubes. The ethanol:water (80:20) solvent (100 μl ) was added to the fourth tube to serve as an uninhibited control.
# #3 ppm inhibitor added at 12 hours
# [3] = tested on: D. multispirans; experiment: Growth of different sulfate-reducers with 1,8-dihydroxyanthraquinone (Example 5); assay type: cell-based; conditions: 3 ppm, 40 hours; control >1.5
# Experimental: (§1) Growth was monitored as optical density at 660 nm for 40 hours.
# [4] = tested on: D. desulfuricans G100A; experiment: Growth of different sulfate-reducers with 1,8-dihydroxyanthraquinone (Example 6); assay type: cell-based; conditions: 3 ppm, 40 hours; control >1.5
# Experimental: as §1
# [5] = tested on: D. salexigens; experiment: Growth of different sulfate-reducers with 1,8-dihydroxyanthraquinone (Example 8); assay type: cell-based; conditions: 3 ppm, 40 hours; control >1.5
# Experimental: as §1
# [6] = tested on: D. desulfuricans #ATCC 27774; experiment: Growth of different sulfate-reducers with 1,8-dihydroxyanthraquinone (Example 9); assay type: cell-based; conditions: 3 ppm, 40 hours; control .45
# Experimental: as §1
# [7] = tested on: D. vulgaris; experiment: Growth of different sulfate-reducers with 1,8-dihydroxyanthraquinone (Example 10); assay type: cell-based; conditions: 3 ppm, 40 hours; control .20
# Experimental: as §1
# [8] = tested on: Escherichia coli strain MC106; experiment: Aerobic and anaerobic growth of Escherichia coli; assay type: cell-based; conditions: 5 ppm
# Experimental: Another non-sulfate reducing organism, Escherichia coli strain MC106 was grown under aerobic conditions on BTZ-3 with 30 mM sodium succinate as sole carbon and electron source with oxygen as electron acceptor or under anaerobic conditions with hydrogen (80% as electron donor) and carbon dioxide (20%) as gas phase and sodium fumarate (30 mM) as electron acceptor. Both media contained 0.2% yeast extract.
# Aerobic growth with succinate refers to growth on succinate as a carbon and electron source and oxygen as an electron acceptor. Anaerobic growth under hydrogen/carbon dioxide refers to growth with hydrogen as an electron donor and fumarate as an electron acceptor.
# [9] = tested on: D. desulfuricans #ATCC27774; experiment: Rate of hydrogen utilization in the presence of different electron acceptors; assay type: cell-based
# Text: The following experiments show the effect of the 1,8-dihydroxy-anthraquinone on the rate of hydrogen utilization by bacteria in the presence of different electron acceptors.
# [10] = tested on: Desulfovibrio gigas; experiment: Sulfide production by resting cells of D. gigas; assay type: cell-based
# Experimental: Experiments in this example were carried out using resting cells of Desulfovibrio gigas rather than growing cells as was the case for the autoanalyzer system employing the Desulfovibrio desulfuricans G100A strain. […] Thus the experiment examined a different organism, different test system, and a different physiological state for the phenomenon of anthraquinone inhibition of sulfide production by Desulfovibrio sp. Active compounds, as determined by the autoanalyzer, were evaluated in comparison with four additional compounds not evaluated in the autoanalyzer.
# 500 ml cultures of Desulfovibrio gigas were grown on standard BTZ-3 medium as previously described in Example 1 with 30 mM sodium lactate, 30 mM sodium sulfate and 30 mM sodium fumarate. The culture was harvested after 24 h of growth at 31° C. by centrifugation at 8000 rpm in a GSA Sorvall rotor for 20 minutes. The cell pellet was resuspended in 30 ml of incubation assay mixture of the following composition: 50 mM HEPES buffer pH 7 buffer, 2.5 mM sodium lactate, 2.5 mM sodium sulfate. This suspension was centrifuged again at 10,000 rpm in a Sorvall SS-34 rotor for 5 minutes. The resulting cell pellet was resuspended in 5 ml of incubation assay buffer. Cell densities were generally near 10e10 cells/mi.
# The samples were assayed for production in the presence of anthraquinones. 200 ul of the cell suspension was added to 1.2 ml of incubation assay mixture in a 5 ml capacity test tube. The tube was gassed with hydrogen gas for 20 minutes then the anthraquinones were added as ethanolic solutions, the tubes were then gassed with hydrogen again for 5 minutes. The reaction mixtures were then incubated for 3 hours at 31° C. The reactions were stopped by the addition of 200 ul of 1N sodium hydroxide. After 20 minutes the alkaline mixtures were centrifuged in a table top microfuge for 4 minutes at 14,000 rpm to remove cells and cell debris. The supernatant was then assayed for sulfide using the ferric chloride-DPD reagent system as described by Siegel et al., Anal. Blochem., 11:126-132, 1965, herein incorporated by reference.
# [11] = tested on: D. desulfuricans #ATCC27774; experiment: Respiration rate (hydrogen gas uptake) with sulfate as electron acceptor; conditions: Desulfovibrio desulfuricans, ATCC27774, 4 h, pH 7, read-out: Gas Uptake (as percent of control)
structure (smiles),measurement,setting,value
"O=C1c2cccc(O)c2C(=O)c2c(O)cccc21 [1,8-Dihydroxyanthraquinone]",inhibition at 10 ppm,[1],82.2%
same,optical density reading at 660 nm,"[2]; 0 h of growth, before addition of 3 ppm inhibitor at 12 h",.01
same,optical density reading at 660 nm,"[2]; 10 h of growth, before addition of 3 ppm inhibitor at 12 h",.12
same,optical density reading at 660 nm,"[2]; 12 h of growth, 3 ppm inhibitor added at 12 h",.20
same,optical density reading at 660 nm,"[2]; 14 h of growth, 3 ppm inhibitor added at 12 h",.19
same,optical density reading at 660 nm,"[2]; 18 h of growth, 3 ppm inhibitor added at 12 h",.16
same,optical density reading at 660 nm,"[2]; 20 h of growth, 3 ppm inhibitor added at 12 h",.16
same,optical density reading at 660 nm,"[2]; 24 h of growth, 3 ppm inhibitor added at 12 h",.16
same,optical density reading at 660 nm,"[2]; 29 h of growth, 3 ppm inhibitor added at 12 h",.18
same,optical density reading at 660 nm,"[2]; 34 h of growth, 3 ppm inhibitor added at 12 h",.18
same,optical density reading at 660 nm,"[2]; 62 h of growth, 3 ppm inhibitor added at 12 h",.30
same,optical density reading at 660 nm,"[2]; 92 h of growth, 3 ppm inhibitor added at 12 h",.28
same,"Optical Density @ 660 nm, treated",[3],.28
same,"Optical Density @ 660 nm, treated",[4],.20
same,"Optical Density @ 660 nm, treated",[5],.06
same,"Optical Density @ 660 nm, treated",[6],.08
same,"Optical Density @ 660 nm, treated",[7],.05
same,inhibition of aerobic or anaerobic growth (in words),[8],virtually no inhibition
same,Optical Density @ 660 nm,"[8]; aerobic growth with succinate, 0 h, control 0.01",0.01
same,Optical Density @ 660 nm,"[8]; aerobic growth with succinate, 5.5 h, control 0.17",0.24
same,Optical Density @ 660 nm,"[8]; aerobic growth with succinate, 6.5 h, control 0.37",0.39
same,Optical Density @ 660 nm,"[8]; aerobic growth with succinate, 7.5 h, control 0.38",0.40
same,Optical Density @ 660 nm,"[8]; aerobic growth with succinate, 24 h, control 1.50",1.50
same,Optical Density @ 660 nm,"[8]; anaerobic growth under hydrogen/carbon dioxide, 0 h, control 0.0",0.01
same,Optical Density @ 660 nm,"[8]; anaerobic growth under hydrogen/carbon dioxide, 3.5 h, control 0.30",0.29
same,Optical Density @ 660 nm,"[8]; anaerobic growth under hydrogen/carbon dioxide, 4.5 h, control 0.45",0.62
same,Optical Density @ 660 nm,"[8]; anaerobic growth under hydrogen/carbon dioxide, 5.5 h, control 0.61",0.79
same,Optical Density @ 660 nm,"[8]; anaerobic growth under hydrogen/carbon dioxide, 6.0 h, control 0.75",0.87
same,Hydrogen,"[9]; Fumarate as electron acceptor, 3 ppm, 0 min, control 0",0 µL
same,Hydrogen,"[9]; Fumarate as electron acceptor, 3 ppm, 10 min, control 9",8 µL
same,Hydrogen,"[9]; Fumarate as electron acceptor, 3 ppm, 25 min, control 23",25 µL
same,Hydrogen,"[9]; Fumarate as electron acceptor, 3 ppm, 40 min, control 47",48 µL
same,Hydrogen,"[9]; Fumarate as electron acceptor, 3 ppm, 55 min, control 70",74 µL
same,Hydrogen,"[9]; Fumarate as electron acceptor, 3 ppm, 70 min, control 95",101 µL
same,Hydrogen,"[9]; Sulfate as electron acceptor, 3 ppm, 0 min, control 0",0 µL
same,Hydrogen,"[9]; Sulfate as electron acceptor, 3 ppm, 10 min, control 15",3 µL
same,Hydrogen,"[9]; Sulfate as electron acceptor, 3 ppm, 25 min, control 44",14 µL
same,Hydrogen,"[9]; Sulfate as electron acceptor, 3 ppm, 40 min, control 76",21 µL
same,Hydrogen,"[9]; Sulfate as electron acceptor, 3 ppm, 55 min, control 107",28 µL
same,Hydrogen,"[9]; Sulfate as electron acceptor, 3 ppm, 70 min, control 152",38 µL
same,Hydrogen,"[9]; Sulfate as electron acceptor, 3 ppm, 85 min, control 208",45 µL
same,Hydrogen,"[9]; Sulfate as electron acceptor, 3 ppm, 100 min, control 266",56 µL
same,Hydrogen,"[9]; Sulfate as electron acceptor, 3 ppm, 115 min, control 336",74 µL
same,Hydrogen,"[9]; Sulfite as electron acceptor, 3 ppm, 0 min, control 0",0 µL
same,Hydrogen,"[9]; Sulfite as electron acceptor, 3 ppm, 6 min, control 7",7 µL
same,Hydrogen,"[9]; Sulfite as electron acceptor, 3 ppm, 16 min, control 26",25 µL
same,Hydrogen,"[9]; Sulfite as electron acceptor, 3 ppm, 26 min, control 45",43 µL
same,Hydrogen,"[9]; Sulfite as electron acceptor, 3 ppm, 59 min, control 139",141 µL
same,Hydrogen,"[9]; Sulfite as electron acceptor, 3 ppm, 71 min, control 179",183 µL
same,Hydrogen,"[9]; Thiosulfate as electron acceptor, +6 ppm, 0 min, control 0",0 µL
same,Hydrogen,"[9]; Thiosulfate as electron acceptor, +6 ppm, 11 min, control 38",33 µL
same,Hydrogen,"[9]; Thiosulfate as electron acceptor, +6 ppm, 21 min, control 90",73 µL
same,Hydrogen,"[9]; Thiosulfate as electron acceptor, +6 ppm, 31 min, control 144",118 µL
same,Hydrogen,"[9]; Thiosulfate as electron acceptor, +6 ppm, 41 min, control 204",176 µL
same,activity at 0.1 ppm,"[10]; Desulfovibrio, 0.1 ppm, 3 hours at 31° C.",101%
same,activity at 0.5 ppm,"[10]; Desulfovibrio, 0.5 ppm, 3 hours at 31° C.",51%
same,activity at 2 ppm,"[10]; Desulfovibrio, 2 ppm, 3 hours at 31° C.",4%
same,activity at 5 ppm,"[10]; Desulfovibrio, 5 ppm, 3 hours at 31° C.",2.3%
same,inhibition of sulfide production (in words),[10]; resting cells,inhibitory properties
same,activity at 0.6 ppm,[11],66%
same,activity at 1.5 ppm,[11],45%
same,activity at 3 ppm,[11],30%
